Results taken from patent publication US10674699B2, “Endophyte enhanced seedlings with increased pest tolerance” (priority 2006, dated 2020).

How the values were obtained:
[1] = system: Choristoneura fumiferana (spruce budworm) larvae; assay: Dietary rugulosin in artificial diet, spruce budworm larvae; format: in vivo
Experimental: Spruce budworm (Choristoneura fumiferana) larvae were obtained from the colony at the Natural Resources Canada, Canadian Forest Service Laboratory in Sault Ste. Marie, Ontario and stored at 5° C. For each test, second instar larvae are put in creamer cups containing approximately 15 ml of artificial diet which had been prepared the day before and allowed to set overnight. The diet used is based on McMorran (1965) as modified by Forestry Canada. The cups are placed in a growth chamber at 22° C., 55% RH with 16 h light/day until they reach 4-5 instar as estimated by visually assessment. Batches of diet are prepared and suitable portions were measured out for addition of extracts, fractions or pure compounds. After 4 days on the test diet, the budworms were frozen, weighed and measured. The data was analyzed for dry weight reductions in comparison to controls and for changes in the distribution of insects at different instars in comparison to controls.
C. fumiferana larvae (spruce budworm) were obtained from Insect Production Services, Forestry Canada (Sault Ste. Marie, ON) and stored at 5° C. For each test, a sufficient number of larvae were hatched and put in creamer cups containing 15 ml of artificial diet. The diet was prepared in-house (McMorran 1965). The cups were placed in a growth chamber at 22° C., 55% RH with 16 h light/day until the larvae reached second/third instar (McGugan 1954). A suitable amount of diet was prepared, and 4 aliquots dispensed into a flask. Dilutions of pure rugulosin were made in 95% ethanol to provide the required concentrations (540 μl ethanol solution plus the vehicle control) and added to the flasks respectively. The diet was mixed with a stir bar and by the pipette used to dispense the media. Two drops of hot liquid diet were added with a 10 ml sterile pipette (0.1 g dry weight) to 4 ml tapered plastic sample cups (Fisher Scientific #025444, #25444A). […] Head capsule widths were determined using a stereo microscope at 40× with ocular and stage micrometers. […]

[2] = system: Zeiraphera canadensis larvae (spruce budmoth); assay: Dietary rugulosin in artificial diet, wild collected spruce budmoth larvae; format: in vivo
Experimental: Zeiraphera canadensis larvae (spruce budmoth) were collected from the wild near Sussex in mid June. They were immediately put in test vials and tested at rugulosin concentrations of 10, 50, 100 and 150 μM (75 per concentration). After seven days, surviving larvae were frozen and measured.

[3] = Rugulosin analysis of needles by HPLC (toxin in planta); design: species or system Picea glauca; conditions: field trees analyzed in 2005, limit of detection 150 ng/g
Experimental: Rugulosin of purity>95% was used for standards. The presence of rugulosin was then to be determined in a sub-sample of 113 randomly-selected trees of the 330 trees determined to be endophyte positive by antibody. A 100 mg sample of freeze-dried needles was ground to a fine power as describe above and extracted with 10 mL of ice cold petroleum ether by stirring for 45 min under conditions of low light. The flask was kept on ice during the extracting and was covered with aluminium foil to prevent degradation by light. The suspension was filtered by suction and discarded. The needles were returned to the flask and extracted with 10 mL of chloroform for 45 min as above for petroleum ether. The new suspension was then filtered by suction and retained while the needles were discarded. The chloroform extract was washed with 10 mL of 5% NaHCO3 in a separatory funnel. […]
The dried extracts were re-dissolved in 50 μL of acetonitrile, 10 μL was removed and injected into an 1100 series Agilent Technologies HPLC-DAD, using a Synergi Max RP 80A, 250×4.6 column (Phenomonex) and a gradient method adapted from Frisvad (1987). […] Samples were analysed at 389 nm, the maximum UVNIS absorption for rugulosin and peak identity was confirmed by full spectrum data from the diode array detector. The limit of quantification was 150 ng/g freeze dried powdered material; recoveries from spiked needles averaged 75%. […]

[4] = system: Choristoneura fumiferana (spruce budworm) larvae; conditions: Calhoun et al. 1992; cited from earlier work
[5] = system: HepG2 cells (human hepatoma cells); conditions: Watts et al. 2003; cited from earlier work
[6] = system: Gram positive and negative bacteria; conditions: reported by many authors, e.g. Stark et al. 1978; cited from earlier work

SMILES: Cc1cc(O)c2c(c1)C(=O)[C@]13C(=C2O)C(=O)[C@@H]2[C@H](O)[C@H]1[C@@H]1[C@@H](O)[C@H]3C(=O)C3=C(O)c4c(O)cc(C)cc4C(=O)[C@]312 [rugulosin]
- dietary rugulosin concentration with significantly reduced head capsule ([1]; artificial diet, 4 d): 100 µM
- dietary toxic effect level for rugulosin ([1]; dietary LOEL adjusted for mean ratio dry weight:wet weight of needles): 0.5 µg/g
- rugulosin concentration in vitro that affected budworm growth and development ([1]; in vitro (diet), Example 1): 1 µg/g
- larval weights, controls vs treatment groups by ANOVA (LSD, Tukey) ([2]; 10, 50, 100 and 150 μM rugulosin, seven days): not significantly different
- effect of rugulosin on wild collected larvae relative to the other insect species ([2]; diet): same order of magnitude
- dietary concentration reducing body weight and/or affecting instar development ([2]; in vitro, diet): ~50 µM
- individual branch samples positive for rugulosin or its degradation product [3]: 89%
- toxicity to C. fumiferana larvae in an artificial diet [4]: toxic
- cytotoxicity [5]: not cytotoxic
- antibiotic activity [6]: antibiotic
